Measured values published in patent US9375519B2, “Bioerodable poly(etheresteramides) and medical article uses” (SurModics, Inc., priority 2012, dated 2016).
Entries after “also recorded” stand apart in the source; their conditions may differ. Structures can show the parent of a compound that is named as a salt.

Experiment: Analysis of monomer degradation in deuterated water by NMR (free phenylalanine)
Assay type: physicochemical
Details: deuterated water at pH 4, 7 or 11, room temperature
Experimental: Monomers of formula II were evaluated for degradation in water at basic, neutral, and acidic pH conditions.
NMR indicated an increasing presence of free phenylalanine, a degradation byproduct, in solution over time (FIG. 1). […] This is consistent with hydrolysis of the ester bond in the Phe-TEG monomer.
Monomers were placed in deuterated water (adjusted to pH 4, 7, or 11 with DCl or NaOD) in an NMR tube and incubated at room temperature. NMR was used to detect the presence of free phenylalanine, a degradation byproduct, in the aqueous phase (see FIG. 1).

NC(Cc1ccccc1)C(=O)OCCOCCOCCOCCOC(=O)C(N)Cc1ccccc1 (stereo not shown) [Phe-TEG, di-p-toluenesulfonic salt of bis-(phenylalanine)-tetraethylene glycol diester]
degradation of monomer in water (free phenylalanine in solution over time by NMR): showed evidence of degradation; also recorded: larger under basic conditions than neutral or acidic
